Results: patent US20230219949A1, “INHIBITORS OF (ALPHA-V)(BETA-6) INTEGRIN” (priority 2018, published 2023)
“And” between values parts separate entries of the source, which are not always exact repeats. Identical values can stand only once.

What was measured:
[1] = molecular target: integrin αvβ6 (Homo sapiens, UniProt P06756+P18564); experiment: Fluorescence polarization assay for αvβ6 binding (competition with fluorescein-labeled peptide GRGDLGRL); settings: fluorescence polarization assay of Example 12; 10 nM integrin αvβ6, 3 nM labeled peptide; read-out: avb6. (IC50)
Chain of integrin αvβ6 (P06756 31-992 limits assumed): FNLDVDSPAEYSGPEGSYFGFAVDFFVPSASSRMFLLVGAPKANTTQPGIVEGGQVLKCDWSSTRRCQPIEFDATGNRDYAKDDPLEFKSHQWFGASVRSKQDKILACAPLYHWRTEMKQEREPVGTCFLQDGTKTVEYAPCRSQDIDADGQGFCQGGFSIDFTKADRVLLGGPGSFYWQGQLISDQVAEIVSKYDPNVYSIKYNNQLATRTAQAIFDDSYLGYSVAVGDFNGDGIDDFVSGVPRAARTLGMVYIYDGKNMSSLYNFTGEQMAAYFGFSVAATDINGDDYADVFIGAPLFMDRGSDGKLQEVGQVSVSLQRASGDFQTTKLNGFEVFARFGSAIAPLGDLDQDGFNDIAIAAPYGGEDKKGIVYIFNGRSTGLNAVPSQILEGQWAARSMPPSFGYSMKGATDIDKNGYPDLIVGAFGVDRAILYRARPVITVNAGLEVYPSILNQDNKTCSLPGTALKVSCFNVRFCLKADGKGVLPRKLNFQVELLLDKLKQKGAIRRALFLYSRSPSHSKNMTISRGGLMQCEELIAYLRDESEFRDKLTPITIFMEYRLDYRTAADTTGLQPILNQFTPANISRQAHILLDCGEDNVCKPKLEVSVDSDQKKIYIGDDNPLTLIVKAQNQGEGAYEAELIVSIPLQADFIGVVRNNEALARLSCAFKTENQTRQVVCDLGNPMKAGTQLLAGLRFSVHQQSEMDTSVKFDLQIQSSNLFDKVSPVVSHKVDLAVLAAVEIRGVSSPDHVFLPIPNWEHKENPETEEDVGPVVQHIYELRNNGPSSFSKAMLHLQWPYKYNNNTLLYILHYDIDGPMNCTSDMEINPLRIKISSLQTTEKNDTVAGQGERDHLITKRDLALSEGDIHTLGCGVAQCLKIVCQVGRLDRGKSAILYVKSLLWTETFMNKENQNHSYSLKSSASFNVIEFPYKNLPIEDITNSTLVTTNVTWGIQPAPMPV
Chain of integrin αvβ6 (P18564 22-709 limits assumed): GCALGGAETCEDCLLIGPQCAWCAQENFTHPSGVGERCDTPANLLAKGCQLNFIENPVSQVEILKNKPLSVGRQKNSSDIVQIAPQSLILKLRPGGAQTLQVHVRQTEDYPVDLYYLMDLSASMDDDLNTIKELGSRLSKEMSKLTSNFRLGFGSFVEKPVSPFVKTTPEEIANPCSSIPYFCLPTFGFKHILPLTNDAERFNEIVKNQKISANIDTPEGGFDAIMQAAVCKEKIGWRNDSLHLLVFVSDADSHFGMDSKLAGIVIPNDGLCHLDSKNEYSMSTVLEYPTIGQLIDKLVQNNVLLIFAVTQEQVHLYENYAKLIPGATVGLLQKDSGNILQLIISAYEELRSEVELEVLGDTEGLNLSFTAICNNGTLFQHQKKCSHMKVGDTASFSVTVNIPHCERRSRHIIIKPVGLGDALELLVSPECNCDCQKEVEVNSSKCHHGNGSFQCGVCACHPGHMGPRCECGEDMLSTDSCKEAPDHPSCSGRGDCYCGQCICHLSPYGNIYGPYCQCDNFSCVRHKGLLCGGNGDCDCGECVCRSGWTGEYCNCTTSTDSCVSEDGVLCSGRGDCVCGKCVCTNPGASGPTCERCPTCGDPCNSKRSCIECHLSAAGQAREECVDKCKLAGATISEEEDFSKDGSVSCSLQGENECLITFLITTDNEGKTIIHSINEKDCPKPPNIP
Description: Fluorescence Polarization (FP) assays were used to measure compound activity through binding competition with the fluorescein-labeled peptide GRGDLGRL. In the assay, 10 nM of integrin αvβ6 was incubated with the test compound in 2 mM manganese chloride, 0.1 mM calcium chloride, 20 mM HEPES buffer at pH 7.3, 150 mM sodium chloride, 0.01% Triton X-100, 2% DMSO, and 3 nM of the fluorescein-labeled peptide. The assays were run in 384-well plates. For both assay versions, the integrin protein was pre-incubated with the test compounds for 15 minutes at 22° C. before the fluorescein-labeled peptide was added. After the fluorescein-labeled peptide was added, the assay was incubated at 22° C. for 1 hour and fluorescence polarization was measured. IC50 values were determined by nonlinear regression, 4-parameter curve fitting (FIG. 1).

[2] = MDCK in vitro permeability assay, wild type MDCK cells with no inhibitor (A→B); type: in vitro ADME, Canine; settings: dog, no Pgp inhibitor, apical to basolateral
Description: (§1) Compounds were tested for permeability in an MDCK permeability assay. This assay measures the ability of compounds to cross a layer of Madin-Darby Canine Kidney (MDCK) cells from the apical to basolateral side (A→B). This measurement is predictive of the ability of compounds to be absorbed in the gut following oral dosing, an essential characteristic of an orally administered small molecule integrin inhibitor drug.
(§2) The assay is run in two formats. One uses wild type MDCK cells with no inhibitor. This method works well in determining the passive permeability of compounds with low efflux by P-glyocprotein (Pgp), and was used to assess permeability of a Reference Compound having the chemical formula shown below.
(§3) Cell Culture and Maintenance: • Cell stock cultures (MDCK or MDCK MDR1) are maintained in MEM+10% FBS+1% NEAA, grown in 75 cm^2 tissue culture treated flasks and split (passed) 2 times weekly to maintain desired confluence. • For maintenance passage: trypsinized cells are routinely distributed into new flasks at a standard passage ratio of 1:20.
(§4) Seeding assay plates: MDCK assay plates are seeded with MDCK or MDCK MCR1 cells 3-4 days prior to running the assay. 24-well plates are seeded at a cell density of 0.88×10^5/well in a 400 μL apical chamber volume (2.2×10^5/mL) with a […] volume of growth medium to the 24-well basal chamber. […]

[3] = test system: Madin-Darby Canine Kidney (MDCK) cells; experiment: as above; type: in vitro ADME; settings: no Pgp inhibitor, apical to basolateral
Description: as §1, §2, §3, §4

IC50 [1]: ~96.5 nM and 96.5 nM
Papp A→B at 90 min, 5 μM [2]: < 0.23 ×10⁻⁶ cm/s
MDCK (A−>B) [3]: less than 0.23
SMILES: O=C(O)CN1CCC(C(=O)N2CCC(c3ccc4c(n3)NCCC4)CC2)CC1 [Reference Compound]
